Assay results as given in the supplement of paper PMC10307832.

Assays:
Experiment in all cases: relative viability (nuclei count vs DMSO), 5 days (fraction); higher = more cells survive
Alpelisib + Palbociclib = compound: Cc1nc(NC(=O)N2CCC[C@H]2C(N)=O)sc1-c1ccnc(C(C)(C)C(F)(F)F)c1 [Alpelisib] + CC(=O)c1c(C)c2cnc(Nc3ccc(N4CCNCC4)cn3)nc2n(C2CCCC2)c1=O [Palbociclib] (partner 0.5 µM)
Summary of the method: (§1)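 One day after seeding in 1536-well plates, lung cancer cell lines were dosed by pin tool. Dosing was either single-drug or a fixed anchor-drug dose plus five library-drug doses (not always all listed) in √10 steps. After 5 days, nuclei were stained in one fix-and-stain step and counted on 4× images, and relative viability is the nuclei count of treated wells over that of vehicle wells, given as the median of duplicate plates.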

OSI-027 + Foretinib = compound: COc1cccc2cc(-c3nc([C@H]4CC[C@H](C(=O)O)CC4)n4ncnc(N)c34)[nH]c12 [OSI-027] + COc1cc2c(Oc3ccc(NC(=O)C4(C(=O)Nc5ccc(F)cc5)CC4)cc3F)ccnc2cc1OCCCN1CCOCC1 [Foretinib] (partner 0.25 µM)
Summary of the method: as §1

OSI-027 + Luminespib = compound: COc1cccc2cc(-c3nc([C@H]4CC[C@H](C(=O)O)CC4)n4ncnc(N)c34)[nH]c12 [OSI-027] + CCNC(=O)c1noc(-c2cc(C(C)C)c(O)cc2O)c1-c1ccc(CN2CCOCC2)cc1 [Luminespib] (partner 0.01 µM)
Summary of the method: as §1

OSI-027 + Vorinostat = compound: COc1cccc2cc(-c3nc([C@H]4CC[C@H](C(=O)O)CC4)n4ncnc(N)c34)[nH]c12 [OSI-027] + O=C(CCCCCCC(=O)Nc1ccccc1)NO [Vorinostat] (partner 1 µM)
Summary of the method: as §1

**Q.** UMC-11 was tested. Which relative viability (Alpelisib + Palbociclib; first compound 0.04 µM) did it give?
**A.** The relative viability was 0.333.

**Q.** What about the relative viability (Alpelisib + Palbociclib; first compound 0.1265 µM) of the same cell line?
**A.** The relative viability was 0.3.

**Q.** What about the relative viability (Alpelisib + Palbociclib; first compound 0.4 µM) of the same cell line?
**A.** The relative viability was 0.357.

**Q.** And the relative viability (Alpelisib + Palbociclib; first compound 1.265 µM)?
**A.** Its relative viability is 0.307.

**Q.** What about the relative viability (Alpelisib + Palbociclib; first compound 4 µM) of the same cell line?
**A.** Its relative viability is 0.328.

**Q.** What about the relative viability (OSI-027 + Foretinib; first compound 0.01 µM) of the same cell line?
**A.** Its relative viability is 0.903.

**Q.** And the relative viability (OSI-027 + Foretinib; first compound 0.03162 µM)?
**A.** Its relative viability is 0.866.

**Q.** What about the relative viability (OSI-027 + Foretinib; first compound 0.1 µM) of the same cell line?
**A.** The relative viability was 0.77.

**Q.** What about the relative viability (OSI-027 + Foretinib; first compound 0.3162 µM) of the same cell line?
**A.** Its relative viability is 0.671.

**Q.** And the relative viability (OSI-027 + Foretinib; first compound 1 µM)?
**A.** The relative viability was 0.444.

**Q.** And the relative viability (OSI-027 + Luminespib; first compound 0.01 µM)?
**A.** The relative viability was 1.04.

**Q.** And the relative viability (OSI-027 + Luminespib; first compound 0.03162 µM)?
**A.** Its relative viability is 0.949.

**Q.** What about the relative viability (OSI-027 + Luminespib; first compound 0.1 µM) of the same cell line?
**A.** Its relative viability is 0.783.

**Q.** And the relative viability (OSI-027 + Luminespib; first compound 0.3162 µM)?
**A.** Its relative viability is 0.637.

**Q.** And the relative viability (OSI-027 + Luminespib; first compound 1 µM)?
**A.** The relative viability was 0.551.

**Q.** What about the relative viability (OSI-027 + Vorinostat; first compound 0.01 µM) of the same cell line?
**A.** The relative viability was 0.379.

**Q.** What about the relative viability (OSI-027 + Vorinostat; first compound 0.03162 µM) of the same cell line?
**A.** The relative viability was 0.371.

**Q.** And the relative viability (OSI-027 + Vorinostat; first compound 0.1 µM)?
**A.** The relative viability was 0.376.

**Q.** What about the relative viability (OSI-027 + Vorinostat; first compound 0.3162 µM) of the same cell line?
**A.** The relative viability was 0.348.

**Q.** What about the relative viability (OSI-027 + Vorinostat; first compound 1 µM) of the same cell line?
**A.** The relative viability was 0.275.
